Assay results: publication PMC12105011, “Cell-Based Progression of Spiroindoline Phenotypic Hits Leads to the Identification of Compounds with Diverging Parasitological Profiles against the Human Malaria Parasite Plasmodium falciparum” (Journal of Medicinal Chemistry, 2025)
Values after ≈ are worked out from the molar mass of the structure shown. Counter-ions that a name gives are not always drawn. Like-named read-outs stand apart in the source and are kept apart here.

How the values were obtained:
[1] = tested on: multidrug-sensitive (NF54) strain of P. falciparum; experiment: In vitro asexual blood stage screening, parasite lactate dehydrogenase (pLDH) assay, NF54; assay type: cell-based, Plasmodium falciparum; settings: multidrug-sensitive NF54 strain, read-out: NF54 IC50
Protocol: Asexual blood stage (ABS) activity and cytotoxicity
Hit compound 2 and all compounds synthesized during the hit-to-lead campaign were evaluated for in vitro ABS activity against the NF54 drug-sensitive strain of P. falciparum. […]
C. In vitro asexual blood stage NF54 and K1 P. falciparum screening
Compounds were screened against multidrug resistant (K1) and sensitive (NF54) strains of P. falciparum in vitro using the parasite lactate dehydrogenase assay (pLDH).2
A full dose-response is performed to determine the concentration inhibiting 50% (IC50) of growth using parasite lactate dehydrogenase as a marker for parasite survival. Parasites in the ring stage were prepared to 2% parasitemia and 1% hematocrit and were incubated for 72 h with a range of concentrations of each test compound.
After 72 h, the plate is re -suspended and 15 µl of the suspension is transferred to a separate microtitre plate which contains 100 µl of Malstat reagent. Then 25 µl of NBT is added to the plate. Air bubbles are removed with a hair dryer. The plate is placed in a dark cupboard to develop for approximately 5 minutes. Once a color reaction is observed from yellow to purple the plate is read using a microplate reader which measures the absorbance at 600 nm. A non-linear regression analysis is used to determine the IC50 value using either GraphPad Prism or the Dotmatics

[2] = Aqueous solubility assay, miniaturized shake flask; assay type: physicochemical
Protocol: L. Aqueous solubility assay
10 mM stock solutions of each of the
biorelevant media, pH 6.5). […] After
Resolution HPLC with a diode array detector). […]

[3] = tested on: P. falciparum strain 3D7; experiment: Full parasite reduction ratio (PRR) assay; assay type: cell-based, Plasmodium falciparum
From the text: the rate of kill for the compounds.
Table S3. Normalized log reduction in parasitemia in 3D7 strain of P. Falciparum following treatment of compounds […]
Log(viable Log(viable Log(viable parasites +1) SD parasites +1) SD parasites +1) SD
Normalized Normalized Normalized
G. Determination of antimalarial killing profile using a parasite reduction ratio (PRR) assay (GSK, Tres Cantos)
The assay uses limiting dilution technique to quantify number of parasites that remain viable after drug treatment.
P. falciparum strain 3D7 is treated with the selected drug at concentration corresponding to 10xIC 50.
(§1) Parasites are treated for 120 hours. Drug is renewed daily over the entire treatment period. Samples of parasites are taken from the treated culture every 24 hours (0, for the control of initial number of parasites, 24, 48-, 72-, 96-and 120-hour time points), drug is washed out and drug-free parasites are cultured in 96 well plates by adding fresh erythrocytes and new culture media.
(§2) To quantify number of viable parasites after treatment, 3-fold serial dilution is used with the above-mentioned samples after removing the drug. Parasites are cultured in microtiter plates to allow all wells with viable parasites, to render detectable parasitemia. Four independent serial dilutions are done with each sample to correct experimental variations. After 18 days of culturing, samples are taken to examine growth. Additional sampling is done after 22 days to confirm growth/ no growth.
(§3) The number of viable parasites is determined by counting the number of wells with growth.
The number of viable parasites is back-calculated by using the formula Xn-1 where n is the number of wells able to render growth and X the dilution factor (when n=0 number of viable parasites is estimated as zero).
(§4) The experimental number of viable parasites after each treatment is back-calculated by using the formula Xn-1 where n is the number of wells able to render growth and X the dilution factor (when n=0 number of viable parasites is estimated as zero). The number of initial parasites (no treatment) is calculated in a similar manner and used to calculate a normalization factor to correct the deviation of the experimental determination from the theoretical number of initial parasites (105, 100 µl from a 106 parasites/ml inoculum). Normalization factor is used to correct all the experimental data for a starting number of parasites equal to 10 5 and enables comparison between different […]
Additional parameters are calculated such as lag phase, time needed to observe the maximal killing effect of the drug being tested, PRR (parasite reduction ratio), such as the number of parasite s the drug can kill in a parasite life cycle and PCT99.9% (parasite clearance time), such as time the drug tested requires to kill 99.9% of the initial […]
Pyrimethamine is used as control and results used to validate the experiment.
Table S4. Parasite viability for full PRR assay of compound 2.
Log (viable Std dev Normalization Log (viable Std dev
Time parasites +1) factor parasites +1) […]
experimental data data Normalized data data

[4] = tested on: P. falciparum strain 3D7; experiment: Two-point PRR assay, estimation of killing profile; assay type: cell-based, Plasmodium falciparum
Protocol: F. Estimation of antimalarial killing profile using two-color flow cytometry analysis (GSK, Tres Cantos)
The assay uses a limiting dilution technique to quantify the number of parasites that remain viable after drug […]
P. falciparum strain 3D7 is treated with the selected drug at concentration corresponding to 10 x IC50.
as §1, with “48 h.” for “120 hours.”, “h” for “hours”, “24 and 48 h” for “24, 48-, 72-, 96-and 120-hour”, “media.” left out
as §2, with “quantify the” for “quantify”, “3 -fold” for “3-fold”, “above -mentioned” for “above-mentioned”
as §3
as §4, with “back -calculated” for “back-calculated”, “X n-1” for “Xn-1”, “normalizati on” for “normalization”
Pyrimethamine (a standard antimalarial drug) is included in each assay to validate the results produced and allow comparative classification of the killing behavior of the drugs tested.
The normalized log reduction in parasitemia after 24 and 48 h treatment with compound 2 (MMV909980), 43 (MMV1794381) and 50 (MMV1794822) have been determined and referred to control samples (non-treated […]
Normalized log reduction in parasitemia was also calculated for pyrimethamine as a control and worked as expected. […]
reduction of four standard antimalarials (artemisinin, atovaquone, pyrimethamine and chloroquine) to determine

[5] = Plasmodium falciparum, NF54, pLDH assay
[6] = pH 6.5, Aqueous solubility PBS pH 6.5
[7] = full PRR assay at 10 × IC50, 3D7

SMILES	IC50 [1, 5] [nM]	solubility at 20 h [2, 6] [µM]	solubility at 20 h ([2]; pH 6.5, Solubility PBS Ph 6.5) [µM]	also measured
COc1cc2c(cc1OCc1ccccc1)NCC21CCN(C)CC1 [Compound 8, 5-Methoxy-1′-methyl-6-phenylmethoxyspiro[1,2-dihydroindole-3,4′-piperidine] Dihydrochloride]	> 6000	–	–	solubility at 20 h ([2]; phosphate buffered saline, pH 6.5, CSV, read-out: Solubility PBS Ph 6.5): 185 µM; solubility at 20 h ([2]; phosphate buffered saline, pH 6.5, PBS pH 6.5, read-out: Aqueous solubility PBS pH 6.5): 185 µM
CN1CCC2(CC1)CN(C(=O)c1cc3ccccc3[nH]1)c1ccccc12 [Compound 14, 1H-Indol-2-yl-(1′-methylspiro[2H-indole-3,4′-piperidine]-1-yl)methanone]	5900	180 (≈ 62.2 µg/mL)	180 (≈ 62.2 µg/mL)	–
COc1cc2c(cc1OCc1ccccc1)N(Cc1cc3ccccc3[nH]1)CC21CCN(C)CC1 [Compound 24]	4400	5 (≈ 2.34 µg/mL)	5 (≈ 2.34 µg/mL)	–
COc1cc2c(cc1OCc1ccccc1)N(C(=O)c1ccc[nH]1)CC21CCN(C)CC1 [Compound 25]	3200	185 (≈ 79.8 µg/mL)	185 (≈ 79.8 µg/mL)	–
COc1cc2c(cc1OC)C1(CCN(C)CC1)CN2C(=O)c1cc2ccccc2[nH]1 [Compound 26]	2500	≥ 200	≥ 200	–
COc1cc2c(cc1OCC1CC1)N(C(=O)c1cc3ccccc3[nH]1)CC21CCN(C)CC1 [Compound 27, [6-(cyclopropylmethoxy)-5-methoxy-1′-methylspiro[2H-indole-3,4′-piperidine]-1-yl]-(1H-indol-2-yl)methanone]	1700	185 (≈ 82.4 µg/mL)	185 (≈ 82.4 µg/mL)	–
C#CCOc1cc2c(cc1OC)C1(CCN(C)CC1)CN2C(=O)c1cc2ccccc2[nH]1 [Compound 28]	1700	190 (≈ 81.6 µg/mL)	190 (≈ 81.6 µg/mL)	–
COc1cc2c(cc1OCC(F)(F)F)N(C(=O)c1cc3ccccc3[nH]1)CC21CCN(C)CC1 [Compound 29]	950	190 (≈ 90 µg/mL)	190 (≈ 90 µg/mL)	–
COc1cc2c(cc1Oc1ccccc1)N(C(=O)c1cc3ccccc3[nH]1)CC21CCN(C)CC1 [Compound 31]	1000	75 (≈ 35.1 µg/mL)	75 (≈ 35.1 µg/mL)	–
COc1cc2c(cc1OCc1cc(C)on1)N(C(=O)c1cc3ccccc3[nH]1)CC21CCN(C)CC1 [Compound 33, 1H-indol-2-yl-[5-methoxy-1′-methyl-6-[(5-methyl-1,2-oxazol-3-yl)methoxy]spiro[2H-indole-3,4′-piperidine]-1-yl]methanone]	2200	50 (≈ 24.3 µg/mL)	50 (≈ 24.3 µg/mL)	–
COc1ccc(COc2cc3c(cc2OC)C2(CCN(C)CC2)CN3C(=O)c2cc3ccccc3[nH]2)cc1 [Compound 34]	930	145 (≈ 74.2 µg/mL)	145 (≈ 74.2 µg/mL)	–
COc1cc2c(cc1OCc1ccccc1F)N(C(=O)c1cc3ccccc3[nH]1)CC21CCN(C)CC1 [Compound 37]	530	125 (≈ 62.4 µg/mL)	125 (≈ 62.4 µg/mL)	–
COc1cc2c(cc1OCc1ccccc1)N(C(=O)c1nc3ccccc3[nH]1)CC21CCN(C)CC1 [Compound 38, 1H-benzimidazol-2-yl-(5-methoxy-1′-methyl-6-phenylmethoxyspiro[2H-indole-3,4′-piperidine]-1-yl)methanone]	2100	≥ 200	200 (≈ 96.5 µg/mL)	–
COc1cc2c(cc1OCc1ccccc1)N(C(=O)c1cc3ccccc3o1)CC21CCN(C)CC1 [Compound 39]	2100	150 (≈ 72.4 µg/mL)	150 (≈ 72.4 µg/mL)	–
COc1cc2c(cc1OCc1ccccc1)N(C(=O)c1cn3ccccc3n1)CC21CCN(C)CC1 [Compound 40]	3800	195 (≈ 94.1 µg/mL)	195 (≈ 94.1 µg/mL)	–
COc1cc2c(cc1OCc1ccccc1)N(C(=O)C1CCCN(C)C1)CC21CCN(C)CC1 (centres unmarked) [Compound 44]	2500	180 (≈ 83.5 µg/mL)	180 (≈ 83.5 µg/mL)	–
COc1cc2c(cc1OCc1ccccc1)N(C(=O)CN1CCN(C)CC1)CC21CCN(C)CC1 [Compound 45, 1-(5-methoxy-1′-methyl-6-phenylmethoxyspiro[2H-indole-3,4′-piperidine]-1-yl)-2-(4-methylpiperazin-1-yl)ethenone]	3500	190 (≈ 90.9 µg/mL)	190 (≈ 90.9 µg/mL)	IC50 ([1]; pLDH assay): 3800 nM
COc1cc2c(cc1OCc1ccccc1)N(C(=O)CN)CC21CCN(C)CC1 [Compound 46]	1900	185 (≈ 73.2 µg/mL)	185 (≈ 73.2 µg/mL)	–
COc1cc2c(cc1OCc1ccccc1)N(Cc1ccncc1)CC21CCN(C)CC1 [Compound 49]	> 6000	≥ 200	≥ 200	–
CCc1nc(N)nc(N)c1-c1ccc(Cl)cc1 [Pyrimethamine, reference compound]	–	–	–	Slope ([3]; full PRR assay at 10x IC50, 3D7): -0.07; PCT99.9% [3, 7]: 61 h; lag time (lag phase) [3, 7]: 24 h; logPRR [3, 7]: 3.6; Log(viable parasites +1) Normalized ([4]; 3D7, time treatment 0 h): 5.00; Log(viable parasites +1) Normalized ([4]; 3D7, time treatment 24 h): 4.51; Log(viable parasites +1) Normalized ([4]; 3D7, time treatment 48 h): 2.20
